Assay results published in patent US11427553B2, “Dihydrooxadiazinones” (Bayer Aktiengesellschaft, priority 2017, dated 2022).
Where a name gives a salt, the structure may show the parent alone. Read-outs that look alike come from different tables or passages of the source.

Legend:
HeLa cells = test: Assay 1 cell proliferation measurement (CTG, 72 h), HeLa; assay type: cell-based, human; conditions: Assay 1, 72 h, Cell Titer Glo, read-out: HeLa IC50 [nM] (Cervical cancer)
Outline: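 Cells were plated, grown overnight at 37 °C, then treated 72 h with a 10-step 2.5-fold dilution series from 100 nM maximum final (0.3% DMSO vehicle). Viability was read by CellTiter-Glo luminescence. IC50 from a 4-parameter fit, normalised to a 0 h plate (maximum inhibition) and DMSO control (minimum inhibition).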

SK-MEL-3 cells = test: Assay 1 cell proliferation measurement (CTG, 72 h), SK-MEL-3; assay type: cell-based, human; conditions: Assay 1, 72 h, Cell Titer Glo, read-out: SK-MEL-3 IC50 [nM] (melanoma)
Procedure: Cell Proliferation Measurement
The antiproliferative activity of the compounds of the general formula (I) was examined in vitro in human cancer cells. For this purpose, the appropriate number of cells (Hela: 800; SK-MEL-3: 1000; A549: 800) were plated in 384-well plates with appropriate growth medium ((A549: DMEM/Ham's F12 (Biochrom; #FG 4815 with stabile Glutamine), FCS 10% final (Biochrom; #S 0415); Hela: DMEM/Ham's F12 (Biochrom; #FG 4815 with stabile Glutamine), FCS 10% final (Biochrom; #S 0415); SK-MEL-3: McCoy's 5A (Biochrom; #F 1015), FCS 10% final (Biochrom; #S 0415), L-Alanyl-L-Glutamine final: 2 mM, (Biochrom; #K 0302)) and incubated at 37° C. overnight. After 24 h, cells on one plate (0 h plate) were treated with 30 μl/cavity of CTG solution (Promega Cell Titer Glo (catalogue #G755B and G756B)) and incubated at room temperature for 10 min, and luminescence was measured by means of a VICTOR V (Perkin Elmer), in order to determine cell viability on commencement of treatment. The cells on the test plate were treated with the compounds of the general formula (I) as and incubated at 37° C. for 72 h. The compounds were added to the cells by means of an HP D300 digital dispenser in a 10-step 2.5-fold dilution series generally starting at a maximum final drug concentration of 100 nM. As control, the cells were treated with vehicle (DMSO at 0.3% final concentration). After 72 h, the cells were treated with 30 μl/cavity of CTG solution (Promega Cell Titer Glo (catalogue #G755B and G756B)) and incubated at room temperature for 10 min. and luminescence was measured by means of a VICTOR V (Perkin Elmer), in order to determine cell viability at the end of treatment. The percentage effect on cell growth and the IC50 derived therefrom were determined for each test substance using the values from the 0 h plate […] and the DMSO control […]. The IC50 values were calculated using a 4-parameter fit.

human full length PDE3A = human full length PDE3A (Homo sapiens (Human), UniProt Q14432); test: Assay 4 PDE3A enzyme inhibition (3H-cAMP SPA); assay type: biochemical; conditions: Sf9 cell extract
Chain of human full length PDE3A (Q14432 whole entry): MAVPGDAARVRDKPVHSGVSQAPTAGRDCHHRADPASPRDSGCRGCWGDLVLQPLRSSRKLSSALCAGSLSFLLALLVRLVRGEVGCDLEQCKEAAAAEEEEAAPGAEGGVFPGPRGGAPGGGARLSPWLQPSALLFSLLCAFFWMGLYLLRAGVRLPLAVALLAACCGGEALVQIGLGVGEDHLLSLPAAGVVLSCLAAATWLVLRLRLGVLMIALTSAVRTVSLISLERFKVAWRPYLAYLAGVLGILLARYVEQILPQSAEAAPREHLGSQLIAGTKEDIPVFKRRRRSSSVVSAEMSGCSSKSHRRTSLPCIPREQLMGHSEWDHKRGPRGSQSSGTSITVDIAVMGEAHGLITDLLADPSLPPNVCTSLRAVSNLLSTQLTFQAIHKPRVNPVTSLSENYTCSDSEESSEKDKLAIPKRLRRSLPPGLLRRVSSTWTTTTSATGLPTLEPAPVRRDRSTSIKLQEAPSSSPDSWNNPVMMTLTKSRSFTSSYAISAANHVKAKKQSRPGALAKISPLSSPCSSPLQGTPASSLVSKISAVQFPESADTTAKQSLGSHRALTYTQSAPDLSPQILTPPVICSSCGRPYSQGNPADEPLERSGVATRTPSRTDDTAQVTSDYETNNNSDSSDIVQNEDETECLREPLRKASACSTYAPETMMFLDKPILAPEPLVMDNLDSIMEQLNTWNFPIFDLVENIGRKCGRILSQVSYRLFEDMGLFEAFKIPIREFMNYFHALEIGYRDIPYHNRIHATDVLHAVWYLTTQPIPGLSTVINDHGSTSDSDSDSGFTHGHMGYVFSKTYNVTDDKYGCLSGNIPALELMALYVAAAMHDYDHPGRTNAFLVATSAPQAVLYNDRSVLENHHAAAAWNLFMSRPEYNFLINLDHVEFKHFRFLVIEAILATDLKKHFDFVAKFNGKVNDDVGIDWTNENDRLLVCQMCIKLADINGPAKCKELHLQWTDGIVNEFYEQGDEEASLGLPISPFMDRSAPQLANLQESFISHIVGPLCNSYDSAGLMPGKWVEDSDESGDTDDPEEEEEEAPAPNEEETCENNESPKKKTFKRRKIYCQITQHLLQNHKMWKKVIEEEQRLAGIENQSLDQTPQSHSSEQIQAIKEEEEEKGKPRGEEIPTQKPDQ
Procedure: Assay 4 Method for PDE3A Enzyme Inhibition
(§1) The commercially available 3H-cAMP Scintillation Proximity Assay (SPA, Perkin Elmer) system was used for enzyme inhibition studies. For the determination of the in vitro effect of example compounds on the PDE3A reactions 2 μl of the respective example compound solution in DMSO (serial dilutions) were placed in wells of microtiter plates (Isoplate-96/200W; Perkin Elmer). 50 μl of a dilution of PDE3A cell extract from Sf9 cells overexpressing human full length PDE3A (SB Drug Discovery, UK) in buffer A (50 mM Tris/HCl pH 7.5, 8.3 mM MgCl2, 1.7 mM EDTA, 0.2% BSA) was added. The dilution of the PDE3A cell extract was chosen such that the reaction kinetics was linear and less than 70% of the substrate was consumed (typical dilution 1:5000). The reaction was started by addition of 50 μl (0.025 μCi) of 1:2000 in buffer A w/o BSA diluted substrate [8-3H]adenosine 3′, 5′-cyclic phosphate (1 μCi/μl; Perkin Elmer). After incubation at room temperature for 60 min, the reaction was stopped by addition of 25 μl of a suspension containing 18 mg/ml yttrium scintillation proximity beads (Perkin Elmer) in water. The microtiter plates were sealed and measured in a Microbeta scintillation counter (PerkinElmer Wallac). IC50 values were determined from sigmoidal curves by plotting percentage PDE3A activity vs log compound concentration.

human full length PDE3B = human full length PDE3B (Homo sapiens (Human), UniProt Q13370); test: Assay 5 PDE3B enzyme inhibition (3H-cAMP SPA); assay type: biochemical; conditions: Sf9 cell extract
Chain of human full length PDE3B (Q13370 whole entry): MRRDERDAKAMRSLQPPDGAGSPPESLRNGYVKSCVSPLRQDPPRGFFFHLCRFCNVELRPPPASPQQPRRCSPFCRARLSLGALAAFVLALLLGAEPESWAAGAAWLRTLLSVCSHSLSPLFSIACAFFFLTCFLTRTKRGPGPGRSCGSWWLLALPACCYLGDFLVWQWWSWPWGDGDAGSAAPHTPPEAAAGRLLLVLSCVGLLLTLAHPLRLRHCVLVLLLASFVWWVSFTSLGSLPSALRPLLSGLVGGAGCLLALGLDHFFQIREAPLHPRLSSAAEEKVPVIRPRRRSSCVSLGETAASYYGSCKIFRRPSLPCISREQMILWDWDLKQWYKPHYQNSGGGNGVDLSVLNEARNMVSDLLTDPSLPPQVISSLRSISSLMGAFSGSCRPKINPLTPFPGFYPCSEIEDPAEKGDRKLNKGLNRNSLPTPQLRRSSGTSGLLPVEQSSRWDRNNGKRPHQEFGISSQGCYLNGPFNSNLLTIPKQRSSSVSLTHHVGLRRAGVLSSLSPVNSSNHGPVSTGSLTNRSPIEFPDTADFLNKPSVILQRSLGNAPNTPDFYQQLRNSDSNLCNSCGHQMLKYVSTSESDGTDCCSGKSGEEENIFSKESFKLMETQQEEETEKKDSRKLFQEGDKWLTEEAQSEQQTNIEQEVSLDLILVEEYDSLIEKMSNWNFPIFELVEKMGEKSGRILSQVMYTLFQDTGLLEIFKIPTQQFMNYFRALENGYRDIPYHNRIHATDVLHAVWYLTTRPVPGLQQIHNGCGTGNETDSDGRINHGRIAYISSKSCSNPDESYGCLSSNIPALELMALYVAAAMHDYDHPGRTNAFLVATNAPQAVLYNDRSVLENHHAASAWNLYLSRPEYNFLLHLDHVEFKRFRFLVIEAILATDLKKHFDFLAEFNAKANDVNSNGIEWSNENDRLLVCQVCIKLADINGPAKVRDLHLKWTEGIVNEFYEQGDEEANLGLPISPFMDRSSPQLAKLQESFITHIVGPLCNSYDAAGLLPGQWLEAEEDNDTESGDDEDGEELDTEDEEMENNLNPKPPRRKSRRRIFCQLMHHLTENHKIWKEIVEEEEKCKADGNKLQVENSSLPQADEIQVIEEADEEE
Procedure: as §1, with “PDE3B” for “PDE3A”, “1:6000).” for “1:5000).”

| IC50 (HeLa cells; Homo sapiens, HeLa) [nM] | IC50 (SK-MEL-3 cells; Homo sapiens, SK-MEL3) [nM] | IC50 (human full length PDE3A) [µM] | IC50 (human full length PDE3B) [µM] | IC50 (HeLa cells) [nM] | IC50 (SK-MEL-3 cells) [nM] | Compound |
| --- | --- | --- | --- | --- | --- | --- |
| 1 | 2 | 0.08 | 0.11 |  |  | O=C1NN=C(c2ccc(NCC(O)C(F)(F)F)c(C(F)(F)F)c2)CO1 (racemic) [Example 204, (rac)-5-[4-{[3,3,3-trifluoro-2-hydroxypropyl]amino}-3-(trifluoromethyl)phenyl]-3,6-dihydro-2H-1,3,4-oxadiazin-2-one] |
| 9 | 14 | 0.074 | 0.18 |  |  | CC1CC(C)N1c1ccc(C2=NNC(=O)OC2)cc1C(F)(F)F (racemic) [Example 207, (rac)-5-{4-[2,4-Dimethylazetidin-1-yl]-3-(trifluoromethyl)phenyl}-3,6-dihydro-2H-1,3,4-oxadiazin-2-one] |
| 2 | 3 | 0.066 | 0.1 |  |  | O=C1NN=C(c2ccc(NCC3CCCO3)c(C(F)(F)F)c2)CO1 (racemic) [Example 215, (rac)-5-[4-({[Oxolan-2-yl]methyl}amino)-3-(trifluoromethyl)phenyl]-3,6-dihydro-2H-1,3,4-oxadiazin-2-one] |
| 1 | 3 | 0.027 | 0.025 |  |  | O=C1NN=C(c2ccc(C3CCCOC3)c(C(F)(F)F)c2)CO1 (racemic) [Example 271, (rac)-5-{4-[Oxan-3-yl]-3-(trifluoromethyl)phenyl}-3,6-dihydro-2H-1,3,4-oxadiazin-2-one] |
| 5 | 7 | 0.029 | 0.064 |  |  | NC12CC1CN(c1ccc(C3=NNC(=O)OC3)cc1C(F)(F)F)C2 (racemic) [Example 275, (rac)-5-{4-[1-amino-3-azabicyclo[3.1.0]hexan-3-yl]-3-(trifluoromethyl)phenyl}-3,6-dihydro-2H-1,3,4-oxadiazin-2-one-salt with hydrochloric acid] |
| 78 | 260 | 0.32 | 0.4 |  |  | CC1OC(=O)NN=C1c1ccc(Br)cc1 (racemic) [Intermediate 72, (rac)-5-(4-Bromophenyl)-6-methyl-3,6-dihydro-2H-1,3,4-oxadiazin-2-one] |
|  |  | 0.11 | 0.14 | 5 | 7 | C[C@H]1C[C@H](C)N1c1ccc(C2=NNC(=O)OC2)cc1C(F)(F)F (relative stereo) [Example 208, (cis or trans)-5-{4-[2,4-Dimethylazetidin-1-yl]-3-(trifluoromethyl)phenyl}-3,6-dihydro-2H-1,3,4-oxadiazin-2-one] |
| 3 | 5 | 0.139 | 0.097 |  |  | CC1(F)CCN(c2ccc(C3=NNC(=O)OC3)cc2F)CC1 [Example 5, 5-[3-Fluoro-4-(4-fluoro-4-methylpiperidin-1-yl)phenyl]-3,6-dihydro-2H-1,3,4-oxadiazin-2-one] |
| 5 | 9 | 0.1 | 0.11 |  |  | O=C1NN=C(c2ccc(N3CCC(F)CC3)c(F)c2)CO1 [Example 6, 5-[3-Fluoro-4-(4-fluoropiperidin-1-yl)phenyl]-3,6-dihydro-2H-1,3,4-oxadiazin-2-one] |
| 15 | 43 | 0.22 | 0.23 |  |  | Cc1cc(C2=NNC(=O)OC2)ccc1C1=CCOCC1 [Example 10, 5-[4-(3,6-Dihydro-2H-pyran-4-yl)-3-methylphenyl]-3,6-dihydro-2H-1,3,4-oxadiazin-2-one] |
| 19 | 49 | 0.084 | 0.065 |  |  | Cc1cc(C2=NNC(=O)OC2)ccc1-c1cn[nH]c1 [Example 11, 5-[3-Methyl-4-(1H-pyrazol-4-yl)phenyl]-3,6-dihydro-2H-1,3,4-oxadiazin-2-one] |
| 20 | 58 | 0.031 | 0.03 |  |  | Cc1cc(C2=NNC(=O)OC2)ccc1-c1ccc(=O)[nH]c1 [Example 12, 5-[3-Methyl-4-(6-oxo-1,6-dihydropyridin-3-yl)phenyl]-3,6-dihydro-2H-1,3,4-oxadiazin-2-one] |
| 49 | 64 | 0.063 | 0.071 |  |  | Cc1cc(C2=NNC(=O)OC2)ccc1-c1cncnc1 [Example 14, 5-[3-Methyl-4-(pyrimidin-5-yl)phenyl]-3,6-dihydro-2H-1,3,4-oxadiazin-2-one] |
| 8 | 16 | 0.11 | 0.11 |  |  | Cc1cc(C2=NNC(=O)OC2)ccc1-c1cccc(F)c1 [Example 15, 5-(3′-Fluoro-2-methylbiphenyl-4-yl)-3,6-dihydro-2H-1,3,4-oxadiazin-2-one] |
| 18 | 74 | 0.45 | 0.22 |  |  | CC1CN(c2c(F)cc(C3=NNC(=O)OC3C)cc2F)CCO1 (stereo not shown) [Example 18, 5-{3,5-Difluoro-4-[2-methylmorpholin-4-yl]phenyl}-6-methyl-3,6-dihydro-2H-1,3,4-oxadiazin-2-one] |
| 15 | > 67 | 0.175 | 0.185 |  |  | O=C1NN=C(c2cc(F)c(N3CCOCC3)c(F)c2)CO1 [Example 21, 5-[3,5-Difluoro-4-(morpholin-4-yl)phenyl]-3,6-dihydro-2H-1,3,4-oxadiazin-2-one] |
| 26 | 51 | 0.052 | 0.033 |  |  | N#Cc1cc(C2=NNC(=O)OC2)ccc1N1CCOCC1 [Example 22, 2-(Morpholin-4-yl)-5-(2-oxo-3,6-dihydro-2H-1,3,4-oxadiazin-5-yl)benzonitrile] |
| 45 | > 100 | 0.38 | 0.27 |  |  | N#Cc1cc(C2=NNC(=O)OC2)cc(Cl)c1N1CCOCC1 [Example 23, 3-Chloro-2-(morpholin-4-yl)-5-(2-oxo-3,6-dihydro-2H-1,3,4-oxadiazin-5-yl)benzonitrile] |
| 55 | > 100 | 0.18 | 0.11 |  |  | CC1CN(c2ccc(C3=NNC(=O)OC3)cc2F)CC(C)O1 (stereo not shown) [Example 24, 5-{4-[2,6-Dimethylmorpholin-4-yl]-3-fluorophenyl}-3,6-dihydro-2H-1,3,4-oxadiazin-2-one] |
